Assay results as given in US9211262B2, “Injectable pharmaceutical compositions of an anthracenedione derivative with anti-tumoral activity” (CTI BioPharma Corp., priority 2002, dated 2015).

Experiments:
[1] = in vivo; cited from earlier work
YC-8 lymphoma = settings: wide range of doses; cited from earlier work
ascitic L1210 leukaemia = settings: wide range of doses; cited from earlier work
[2] = Stability in solution in common solvents for parenteral administration; assay type: physicochemical; settings: injectable liquid compositions
[3] = Solubility in water and sodium chloride solutions; assay type: physicochemical
Excerpt: However, the presence of sodium chloride requires the use of long lyophilisation cycles due to the low glass transition temperature observed.

stability in solution [2]: problematic
solubility in sodium chloride solutions ([3]; sodium chloride solutions 0.9 to 4%): progressively more soluble
solubility in water ([3]; water): low solubility
SMILES: NCCNc1ccc(NCCN)c2c1C(=O)c1ccncc1C2=O.O=C(O)/C=C\C(=O)O.O=C(O)/C=C\C(=O)O [BBR 2778, 6,9-bis[(2-aminoethyl)amino]benzo[g]isoquinoline-5,10-dione dimaleate]
cardiotoxicity [1]: lower than that of other known drugs belonging to the same class
activity compared with mitoxantrone (YC-8 lymphoma): more active than mitoxantrone
activity compared with mitoxantrone (ascitic L1210 leukaemia): more active than mitoxantrone
